According to patent publication US20140105919A1, “SYNERGISTIC INHIBITION OF ERBB2/ERBB3 SIGNAL PATHWAYS IN THE TREATMENT OF CANCER” (Institute for Cancer Research d/b/a The Research Institute …, priority 2011, published 2014):

How the values were obtained:
Type in all cases: cell-based
[1] = tested on: MB361/DYT2 breast cancer cells; experiment: secondary validation screen with single siGENOME siRNAs with or without MM-111, CellTiter-Blue viability; set-up: Vehicle (viability score) / Drug (viability score): scale not given here; conditions: for Ratio (drug:vehicle viability): single siRNA; for Drug (viability score): single siRNA and MM-111; for Vehicle (viability score): single siRNA only (vehicle)
Description: Subsets of targets that met criteria of being expressed in the cells and having an FDR of <5% or being expressed in the cells, having an FDR <20%, and having a known connection to ErbB signaling, were validated in a secondary screen in which MB361/DYT2 breast cancer cells were treated with siRNA molecules from the Dharmacon® siGENOME library (Dharmacon, Inc.). Parallel cells were treated with the siRNA only (vehicle) or both the siRNA and the ErbB2/ErbB3 bispecific antibody MM-111, and sensitization of the cells was measured by the CellTiter-Blue® (Promega) viability assay.

BT474 cells = experiment: Cell sensitization to MM-111 and gamma-secretase inhibitor, CellTiter-Blue viability; conditions: BT474, 72 hrs; Compound E 1 μM, MM-111 2 μM, alone or combined; vs DMSO
Description: Inhibition of the Notch pathway was carried out with a compound. Breast cancer cells (BT474 cells) were plated in 96-well plates in DMEM/F12 media with 1% FBS and incubated in a humidified CO2 incubator at 37° C. for 24 hours prior to drug treatment. The media was replaced with DMEM/F12 media with 1% FBS containing DMSO, 1 μM Compound E (Santa Cruz, SC-221433), 2 μM MM-111 (Merrimack Pharmaceuticals), or combined Compound E and MM-111. Cells were incubated in the presence of drug for 72 hrs. CellTiter-Blue® (Promega) was used to measure cell viability according to the standard protocol. The total incubation time in the presence of CellTiter-Blue® was 4 hours, and fluorescence was measured using a Perkin Elmer Envision Plate Reader.

[2] = tested on: Notch signaling (CBF1 reporter) in BT-474 cells; experiment: Notch-dependent activation of CBF-1 reporter (Dual-Luciferase Assay); conditions: MM-111 and Compound E
Description: BT-474 cells were co-transfected with CBF1::firefly luciferase and pRL-TK (renilla luciferase) as an internal control for transfection efficiency. Cells were then treated with MM-111, MM-111 and Compound E, or Rituximab (control antibody), and the ratio of firefly/renilla expression was measured using the Dual-Luciferase Assay (Promega) according to the manufacturer's instructions.

[3] = tested on: Notch target genes in MB-361/DYT2 cells; experiment: Real time PCR of endogenous Notch target genes HES1, HES5, HEY1; conditions: MB361/DYT2; compared to untreated, DMSO or Rituximab
Description: MB-361/DYT2 cells were left untreated (NT) or treated with DMSO (vehicle for Compound E), rituximab (control antibody), Compound E, MM-111, or MM-111 and Compound E. Total RNA was extracted from cells using the RNeasy kit (Qiagen). Total RNA was reverse transcribed to cDNA, and real time PCR was performed, using ABI primer/probe sets, on cDNAs to detect relative expression of the validated Notch target genes HES1 (ABI Assay ID Hs00172878_m1), HES5 (ABI Assay ID Hs01387463_g1), or HEY1 (ABI Assay ID Hs01114113_m1).

Row | Molecule | Ratio (drug:vehicle viability) [1] | Drug (viability score) [1] | Vehicle (viability score) [1] | cell viability / cell killing (BT474 cells) | MM-111-induced CBF1 reporter activity [2] | expression of Notch target genes HES1, HES5, and HEY1 [3]
1 | CCACACGGUUUAAGUCUAU (listed as RNA, chemistry not given here; listed as Homo sapiens) [SEQ ID NO: 50, Dharmacon siGENOME siRNA targeting RFNG] | 0.939 | 1.250 | 1.331 |  |  | 
2 | GGUGUUGUCUGGUCAGUAA (listed as RNA, chemistry not given here; listed as Homo sapiens) [SEQ ID NO: 19, Dharmacon siGENOME siRNA targeting NLK] | 0.776 | 0.991 | 0.993 |  |  | 
3 | GCAGCAAGACCAAGAAAUC (listed as RNA, chemistry not given here; listed as Homo sapiens) [SEQ ID NO: 57, Dharmacon siGENOME siRNA targeting CYR61] | 0.856 | 0.846 | 0.988 |  |  | 
4 | GGUUGUGCCUGGAGGUGGA (listed as RNA, chemistry not given here; listed as Homo sapiens) [SEQ ID NO: 24, Dharmacon siGENOME siRNA targeting TPT1] | 0.845 | 0.775 |  |  |  | 
5 | C[C@H](NC(=O)Cc1cc(F)cc(F)c1)C(=O)N[C@H]1N=C(c2ccccc2)c2ccccc2N(C)C1=O [Compound E] |  |  |  | no effect on viability | the activity is blocked | reduced
6 | CCAAAGGCCUGACCGUUAA (listed as RNA, chemistry not given here; listed as Homo sapiens) [SEQ ID NO: 26, Dharmacon siGENOME siRNA targeting AAMP] | 0.844 | 0.821 | 0.973 |  |  | 
7 | CAUAAGCCCUGCAAGAAUG (listed as RNA, chemistry not given here; listed as Homo sapiens) [SEQ ID NO: 17, Dharmacon siGENOME siRNA targeting DLL1] | 0.823 | 0.812 | 0.987 |  |  | 
8 | GAAGAUACUUGGCACUAUU (listed as RNA, chemistry not given here; listed as Homo sapiens) [SEQ ID NO: 21, Dharmacon siGENOME siRNA targeting SC4MOL] | 0.877 | 0.955 | 1.089 |  |  | 
9 | GGGUCGCUGUGAUGAAAUU (listed as RNA, chemistry not given here; listed as Homo sapiens) [SEQ ID NO: 45, Dharmacon siGENOME siRNA targeting DCI] | 0.762 | 0.627 | 0.823 |  |  | 
